Experimental data: PMC10043345, “Discovery of BAR502, as potent steroidal antagonist of leukemia inhibitory factor receptor for the treatment of pancreatic adenocarcinoma” (Frontiers in Oncology, 2023)

Key:
FXR = target: T1, FXR (Homo sapiens, UniProt Q96RI1); test: FXR transactivation (FXR/RXR, hsp27 IR1-luciferase) in HepG2 cells; format: cell-based
T1 construct: expressed in transfected cells; host or cells: HepG2
T1 sequence (Q96RI1 1-486): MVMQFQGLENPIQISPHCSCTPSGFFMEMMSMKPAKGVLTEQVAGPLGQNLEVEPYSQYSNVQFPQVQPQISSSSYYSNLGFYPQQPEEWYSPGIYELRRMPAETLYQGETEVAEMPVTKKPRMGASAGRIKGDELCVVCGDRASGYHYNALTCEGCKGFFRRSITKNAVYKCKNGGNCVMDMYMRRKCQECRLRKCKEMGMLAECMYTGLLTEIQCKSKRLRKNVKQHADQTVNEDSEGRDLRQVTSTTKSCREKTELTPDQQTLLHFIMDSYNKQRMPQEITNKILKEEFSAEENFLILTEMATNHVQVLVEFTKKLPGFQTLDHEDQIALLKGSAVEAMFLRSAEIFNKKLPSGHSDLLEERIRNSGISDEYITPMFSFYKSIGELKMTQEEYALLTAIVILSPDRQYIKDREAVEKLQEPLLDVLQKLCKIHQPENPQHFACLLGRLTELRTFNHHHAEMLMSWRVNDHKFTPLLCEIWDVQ
T1 sequence (P19793 1-462 partner): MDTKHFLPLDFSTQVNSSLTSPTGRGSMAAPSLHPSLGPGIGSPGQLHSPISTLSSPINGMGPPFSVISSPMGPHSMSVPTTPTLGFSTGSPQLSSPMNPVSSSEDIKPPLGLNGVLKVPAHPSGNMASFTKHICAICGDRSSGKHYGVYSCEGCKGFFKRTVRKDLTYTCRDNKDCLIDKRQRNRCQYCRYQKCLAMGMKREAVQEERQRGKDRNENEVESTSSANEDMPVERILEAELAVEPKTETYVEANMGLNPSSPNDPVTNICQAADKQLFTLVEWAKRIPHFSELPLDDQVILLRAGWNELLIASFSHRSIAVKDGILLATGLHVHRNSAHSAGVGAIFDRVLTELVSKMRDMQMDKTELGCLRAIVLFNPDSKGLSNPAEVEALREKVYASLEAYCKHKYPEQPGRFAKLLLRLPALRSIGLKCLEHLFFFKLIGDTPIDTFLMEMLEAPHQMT
Method: On day 0, HepG2 were seeded at 7.5 × 10^4 cells/well in a 24-well plate and maintained at 37°C and 5% CO2 in E-MEM supplemented with 10% FBS, 1% glutamine, and 1% penicillin/streptomycin. On day 1, cells were transiently transfected with the reporter plasmid pGL4.47[luc2P/SIE/Hygro] (200 ng) (CAT#: E4041 Promega, Madison, WI, USA), a vector encoding the hLIFR (CAT# RC226327) (100 ng) and CD130 (IL6ST) (100 ng) (CAT#: RC215123, OriGene Technologies, Inc. Rockville, MD, USA), and finally a vector encoding the human RENILLA luciferase gene (pGL4.70) (100 ng) (Promega, Madison, WI, USA). On day 2, cells were exposed to the cytokine LIF (10 ng/mL) alone or in combination with BAR502 (from 0.1 to 20 μM). […] For FXR mediated transactivation, HepG2 cells were plated at 7.5 × 10^4 cells/well in a 24 well plate. Cells were transfected with 200 ng of the reporter vector p(hsp27)-TK-LUC containing a FXR response element (IR1) cloned from the promoter of heat shock protein 27 (hsp27), 100 ng of pSG5-FXR, 100 ng of pSG5-RXR, and 100 ng of pGL4.70 (Promega), a vector encoding the human Renilla gene. To perform STAT3 transactivation, HepG2 were seeded at 7.5× 10^4 cells/well in a 24-well plate. On the day-1, cells were transiently transfected with 200 ng of the reporter plasmid pGL4.47[luc2P/SIE/Hygro] […] Luminescence was measured using a Glomax 20/20 luminometer (Promega, Madison, WI, USA). […]

MIA PaCa-2 cells = test: Ki-67/7-AAD IC-FACS cell cycle analysis; format: cell-based, human
Method: MIA-PaCa2 cells were seeded in 6-well tissue culture plate (cell density 700 × 10^3/well) and cultured as specified above. Cells were serum-starved for 8 h and then incubated with LIF (10 ng/mL) alone or plus BAR502 (10, 20 µM) or a vehicle for 24 h. The intracellular flow cytometry staining for Ki-67 was performed using the following reagents: Ki-67 Monoclonal Antibody (SolA15), Alexa Fluor™ 488, (eBioscience™, San Diego, California, USA) and 7-AAD to characterize the cell cycle phases G0-G1 and S-G2-M. Before intracellular IC-FACS, staining cells were fixed for 30 min in the dark using IC Fixation buffer (eBioscience™) and then permeabilized using Permeabilization buffer (10X) (eBioscience™). The staining for Annexin V was performed using the Annexin V Antibody (A13199, Thermofisher Scientific, Waltham, MA, USA) to evaluate the apoptosis rate. Briefly, 5 μL of Annexin V Antibody was added to each 100 μL of cell suspension, and cells were incubated the at room temperature for 15 min. Flow cytometry analyses were carried out using a 3-laser standard configuration ATTUNE NxT (LIFe Technologies, Carlsbad, CA, USA). Data were analyzed using FlowJo software (TreeStar) and the gates set using a fluorescence minus-one (FMO) control strategy. […] The channel in which the conjugated Ab is missing is the one for which the fluorescence minus one provides a gating control.

IC50 (FXR; read-out: HepG2 FXR/RXR Antagonism IC50) [µM] | SMILES | EC50 (FXR; transactivation, agonism, read-out: FXR EC50 Transact) [µM] | effect on LIF-increased S-G2-M transition (MIA PaCa-2 cells; BAR502 10-20 μM + LIF 10 ng/mL) | effect on LIF-induced increase of Ki-67 positive cells (MIA PaCa-2 cells; LIF 10 ng/mL + BAR502)
 | CC[C@H]1[C@@H](O)C2C3CC[C@H]([C@H](C)CCO)[C@@]3(C)CCC2[C@@]2(C)CC[C@@H](O)C[C@@H]12 (stereo partly shown) [BAR502] | 3 ± 1 | significantly reversed | reversed
10 | OCc1ccc(-c2ccc(OCc3cc(-c4c(Cl)cccc4Cl)no3)cc2)cc1 [PDL103, (4’-((3-(2,6-dichlorophenyl)isoxazol-5-yl)methoxy)-[1,1’-biphenyl]-4-yl)methanol] |  |  | 
